For one test, the target named is recombinant human AChE (Homo sapiens, UniProt P22303). Kind of test: biochemical. As to conditions: for Emax: read-out: AChE, % Efficacy. In kind it is biochemical.
Test [1] has as its target T1, Recombinant human BChE (Homo sapiens, UniProt P06276). The test is described as follows: biochemical. As to conditions: for Emax: read-out: BChE, % Efficacy.
Test [2] addresses T1, Recombinant human BChE. Format: biochemical.

Broadly, the IC50 is the concentration needed to halve the response being measured.

Where a name gives a salt, the structure may show the parent alone. Read-outs that look alike come from different tables or passages of the source.

Sequence of recombinant human AChE (P22303 32-614): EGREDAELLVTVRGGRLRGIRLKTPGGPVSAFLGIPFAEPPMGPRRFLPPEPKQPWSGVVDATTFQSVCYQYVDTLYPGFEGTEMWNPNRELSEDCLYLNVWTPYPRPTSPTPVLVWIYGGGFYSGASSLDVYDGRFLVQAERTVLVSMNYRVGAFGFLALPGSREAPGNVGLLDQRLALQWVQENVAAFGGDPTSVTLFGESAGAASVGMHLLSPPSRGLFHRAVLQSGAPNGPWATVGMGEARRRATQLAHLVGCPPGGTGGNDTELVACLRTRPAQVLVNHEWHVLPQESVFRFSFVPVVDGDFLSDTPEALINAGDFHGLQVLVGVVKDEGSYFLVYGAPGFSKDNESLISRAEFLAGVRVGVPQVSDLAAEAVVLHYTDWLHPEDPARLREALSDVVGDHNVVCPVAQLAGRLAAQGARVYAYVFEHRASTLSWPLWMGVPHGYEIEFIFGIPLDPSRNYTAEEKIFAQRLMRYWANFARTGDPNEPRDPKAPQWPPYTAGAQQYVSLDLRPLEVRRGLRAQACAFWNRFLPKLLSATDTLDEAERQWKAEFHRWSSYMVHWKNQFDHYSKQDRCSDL
T1 sequence (P06276 29-602): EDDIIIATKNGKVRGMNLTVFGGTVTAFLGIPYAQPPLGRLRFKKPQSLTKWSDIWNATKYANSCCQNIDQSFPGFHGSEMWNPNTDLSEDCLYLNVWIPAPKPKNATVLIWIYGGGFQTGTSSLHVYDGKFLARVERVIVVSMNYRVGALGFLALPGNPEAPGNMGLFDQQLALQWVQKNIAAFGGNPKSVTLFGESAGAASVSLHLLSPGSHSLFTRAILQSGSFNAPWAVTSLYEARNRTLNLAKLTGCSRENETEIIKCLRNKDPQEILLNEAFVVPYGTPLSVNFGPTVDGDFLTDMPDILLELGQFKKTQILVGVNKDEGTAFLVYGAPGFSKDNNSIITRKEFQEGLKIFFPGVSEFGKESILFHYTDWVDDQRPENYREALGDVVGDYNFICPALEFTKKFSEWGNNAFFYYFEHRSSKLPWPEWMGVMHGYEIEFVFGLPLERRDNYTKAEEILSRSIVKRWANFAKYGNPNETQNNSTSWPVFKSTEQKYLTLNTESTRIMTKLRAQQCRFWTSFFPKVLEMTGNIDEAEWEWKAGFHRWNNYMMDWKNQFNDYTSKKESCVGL

In the case of `CCCCn1c(-c2ccccc2)nc(-c2ccccc2)c1CN(Cc1ccc2c(c1)OCO2)Cc1ccc2c(c1)OCO2` [NDT 9513727, N,N-Bis(1,3-benzodioxol-5-ylmethyl)-1-butyl-2,4-diphenyl-1H-imidazole-5-methanamine], on recombinant human AChE, the AChE inhibition result is recorded as “did not show AChE inhibition” and the “AChE, IC50” value was “Inactive”. The IC50 on Recombinant human BChE [1] (BChE, IC50) amounted to 0.21 µM. For the same compound, the Emax on Recombinant human BChE [1] is -101%.
For `COc1ccc(CN(C(=O)[C@@H](N)Cc2c(C)cc(C(N)=O)cc2C)[C@@H](C)c2ncc(-c3ccccc3)[nH]2)cc1C(=O)O` [Eluxadoline], on recombinant human AChE, the “AChE, IC50” value is “Inactive”. The half-inhibitory concentration (IC50) on Recombinant human BChE [1] (BChE, IC50) came out at 0.34 µM. Also, at Recombinant human BChE [1], the Emax was -100%.
For `Clc1ccc(Nc2nc3ccccc3c3nc(C4CCCCC4)[nH]c23)cc1Cl` [LUF6000], the “inhibition against BChE in the fluorescent assay” value on Recombinant human BChE [2] is on record as “did not show inhibition”.
With `N#CC(c1ccnc(OCc2ccc(CN3CCOCC3)cc2)n1)c1nc2ccccc2s1` (stereo not shown) [Bentamapimod], at recombinant human AChE, the AChE inhibition result is “did not show AChE inhibition” and the “AChE, IC50” value is “Inactive”. Besides, the IC50 at Recombinant human BChE [1] (BChE, IC50) stood at 0.33 µM. Further, the Emax on Recombinant human BChE [1] was -98.8%.
For the compound `CN(C)C(=O)Oc1cc(OC(=O)N(C)C)cc(C(O)CNC(C)(C)C)c1` (stereo not shown) [Bambuterol hydrochloride], on recombinant human AChE, the “AChE, IC50” value is “Inactive”. Also, at Recombinant human BChE [1] (BChE, IC50), the half-inhibitory concentration (IC50) was 0.03 µM. Besides, on Recombinant human BChE [1], the Emax was -91.4%.
In the case of `CN(C)C(=O)Oc1cccc([N+](C)(C)C)c1` [Neostigmine bromide], the Emax at recombinant human AChE was -94.6%; on Recombinant human BChE [1], -102%. Moreover, on Recombinant human BChE [1] (BChE, IC50), the IC50 was 0.9 µM.
On to `CCN(CCCc1ccccc1)CCCc1ccccc1` [Alverine citrate], for which the “AChE, IC50” value on recombinant human AChE was “Inactive”. Further, at Recombinant human BChE [1] (BChE, IC50), the IC50 was 0.38 µM. Also, the Emax on Recombinant human BChE [1] was -95%.
Regarding `COc1cc(O)ccc1OCCNCC(O)COc1cccc2[nH]c3ccccc3c12` (stereo not shown) [4-hydroxyphenyl carvedilol], the “AChE, IC50” value at recombinant human AChE is “Inactive”. Besides, the “BChE, % Efficacy” value at Recombinant human BChE [1] is given as 0.97 ± 0.11 (–100 ± 2.04) %. Further, the IC50 on Recombinant human BChE [1] (read-out: BChE, IC50) stood at 0.97 µM.
The matching figures for `O=c1nc(-c2ccccn2)sc2ccccc12` [BTZO 1]: “Inactive”, 0.49 ± 0.25 (–94.6 ± 2.01) % and 0.49 µM.
In the case of Diethylumbelliferyl phosphate, the “AChE, % Efficacy” value on recombinant human AChE is 0.42 ± 0.03 (–98.6 ± 5.66) %.
Turning to `Nc1c2ccccc2nc2ccccc12` [9-Aminoacridine monohydrochloride monohydrate], the IC50 on Recombinant human BChE [1] (BChE, IC50) came to 0.16 µM. Besides, the Emax at Recombinant human BChE [1] was -101%.
In the case of `CCCCCCCCCCC[C@@H](C[C@@H]1OC(=O)[C@H]1CCCCCC)OC(=O)[C@H](CC(C)C)NC=O` [Orlistat], the Emax was -80.5% at recombinant human AChE and -92.9% at Recombinant human BChE [1]. Moreover, at Recombinant human BChE [1] (BChE, IC50), the IC50 amounted to 0.12 µM.
With `Cc1c[nH]c2ncnc(N3CCC(CN)(C(=O)Nc4cccc(OC(=O)N(C)C)c4)CC3)c12` [LX-7101], the concentration for half-maximal inhibition (IC50) at recombinant human AChE was determined as 7.71 µM; on Recombinant human BChE [1] (BChE, IC50), 0.22 µM. For the same compound, the Emax at recombinant human AChE was -92.4%; at Recombinant human BChE [1], -96.6%.
`CNC(=O)Oc1ccc2c(c1)[C@]1(C)CCN(C)[C@@H]1N2C` [Physostigmine]: the Emax at recombinant human AChE is -103%; on Recombinant human BChE [1] it was -98.4%.
On to `CCN(CC)C(C)CN1c2ccccc2Sc2ccccc21` (stereo not shown) [ethopropazine hydrochloride, Ethopropazine hydrochloride], for which the half-maximal inhibitory concentration (IC50) on Recombinant human BChE [1] (BChE, IC50) was 1.7 ± 0.53 µM.
As for `O=C(CN1CCN(Cc2ccc3c(c2)OCO3)CC1)N1c2ccccc2Sc2ccccc21` [Fenoverine], on recombinant human AChE, the AChE inhibition result is given as “did not show AChE inhibition” and the “AChE, IC50” value is “Inactive”. Moreover, the IC50 at Recombinant human BChE [1] (BChE, IC50) was 0.09 µM. Also, the Emax on Recombinant human BChE [1] was -97.3%.
Take `Cc1c(Cl)c(=O)oc2cc(OP(=O)(OCCCl)OCCCl)ccc12` [Haloxon]: the IC50 at recombinant human AChE came to 0.32 µM; on Recombinant human BChE [1] (BChE, IC50), 0.03 µM. The figures for the Emax at recombinant human AChE and at Recombinant human BChE [1] were -101% and -91.2%, respectively.
On to `CC(C)OC(=O)C1=CN(C(=O)c2ccc(F)c(F)c2)CC(C)(C)c2c1[nH]c1ccccc21` [Turofexorate isopropyl], for which, on recombinant human AChE, the AChE inhibition entry is “did not show AChE inhibition” and the “AChE, IC50” value is recorded as “Inactive”. Besides, the half-inhibitory concentration (IC50) on Recombinant human BChE [1] (BChE, IC50) amounted to 0.29 µM. On Recombinant human BChE [1], the Emax was -98.5%.
For `CN1CCc2cc(Cl)c(O)cc2[C@@H](c2cccc3c2OCC3)C1` [NNC 756], the “AChE, IC50” value at recombinant human AChE is “Inactive”. Further, the “BChE, % Efficacy” value at Recombinant human BChE [1] is on record as 0.84 ± 0.11 (–98.2 ± 6.31) %. The IC50 at Recombinant human BChE [1] (read-out: BChE, IC50) was found to be 0.84 µM.

Values taken from publication PMC8637366 (Slas Discovery, 2021).
